Data published in ChEMBL document CHEMBL3988442, “University of Dundee, Small-Polar-MMV Screening Library” (2021).
Several values for one entry are separate records, joined by “and”; a condition that tells them apart may be missing. Identical values can stand only once.

Experiments:
Wolbachia pipientis = assay: Anti-Wolbachia Cell-Based Screen; format: functional; details: for IC50: Wolbachia pipientis
[1] = microbe, parasite or virus in culture; details: Mycobacterium tuberculosis, 72 h, read-out: pIC50 (converted)
[2] = microbe, parasite or virus in culture; details: Mycobacterium tuberculosis, 96 h, read-out: pIC50 (converted)
Histidine--tRNA ligase = biological target: T1, Histidine--tRNA ligase (Leishmania infantum, UniProt A4I591); assay: Leishmania infantum Histidine tRNA synthetase (LdHisRS); format: functional
T1 sequence (A4I591 whole entry): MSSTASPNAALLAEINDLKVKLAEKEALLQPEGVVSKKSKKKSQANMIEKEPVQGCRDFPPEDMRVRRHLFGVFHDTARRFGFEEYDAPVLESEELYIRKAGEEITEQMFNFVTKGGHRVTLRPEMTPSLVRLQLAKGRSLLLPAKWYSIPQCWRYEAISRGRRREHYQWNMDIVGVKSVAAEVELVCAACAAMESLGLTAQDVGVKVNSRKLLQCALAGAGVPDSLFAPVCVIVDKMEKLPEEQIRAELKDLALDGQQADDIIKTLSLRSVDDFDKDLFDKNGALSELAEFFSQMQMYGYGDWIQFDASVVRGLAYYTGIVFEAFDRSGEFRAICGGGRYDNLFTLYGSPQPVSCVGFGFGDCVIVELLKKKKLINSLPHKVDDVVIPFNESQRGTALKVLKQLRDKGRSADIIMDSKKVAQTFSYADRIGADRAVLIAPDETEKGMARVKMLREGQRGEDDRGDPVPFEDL

[3] = biological target: Polyketide synthase Pks13 (Mycobacterium tuberculosis (strain ATCC 25618 / H37Rv), UniProt I6X8D2); assay: Mycobacterium tuberculosis Polyketide synthase 13 Thioesterase (PKS13); format: functional
Lysine--tRNA ligase = Lysine--tRNA ligase (Plasmodium falciparum (isolate 3D7), UniProt Q8IDJ8); assay: Pf-KRS-1 (Lysyl-RNA Synthetase-1, KRS-1, cytosolic KRS) from Plasmodium falciparum. Inhibitor assay, 384 well plate, luminescence read.; format: functional
Lysine--tRNA ligase, sequence (Q8IDJ8 whole entry): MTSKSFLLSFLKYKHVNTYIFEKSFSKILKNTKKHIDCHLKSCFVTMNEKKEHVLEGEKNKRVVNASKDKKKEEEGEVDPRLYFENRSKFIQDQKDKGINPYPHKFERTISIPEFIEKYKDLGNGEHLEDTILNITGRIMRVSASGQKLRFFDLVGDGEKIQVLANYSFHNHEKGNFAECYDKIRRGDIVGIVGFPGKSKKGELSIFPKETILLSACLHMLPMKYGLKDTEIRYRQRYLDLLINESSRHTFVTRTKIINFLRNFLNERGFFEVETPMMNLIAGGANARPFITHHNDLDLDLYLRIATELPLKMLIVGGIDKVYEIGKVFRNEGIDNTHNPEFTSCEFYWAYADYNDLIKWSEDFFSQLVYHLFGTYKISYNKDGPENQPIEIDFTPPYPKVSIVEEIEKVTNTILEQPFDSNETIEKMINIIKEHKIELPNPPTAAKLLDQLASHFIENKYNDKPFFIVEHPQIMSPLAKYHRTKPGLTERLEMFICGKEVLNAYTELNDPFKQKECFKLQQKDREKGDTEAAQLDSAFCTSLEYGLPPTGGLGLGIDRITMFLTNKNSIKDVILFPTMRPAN

Polyketide synthase Pks13, sequence (I6X8D2 whole entry): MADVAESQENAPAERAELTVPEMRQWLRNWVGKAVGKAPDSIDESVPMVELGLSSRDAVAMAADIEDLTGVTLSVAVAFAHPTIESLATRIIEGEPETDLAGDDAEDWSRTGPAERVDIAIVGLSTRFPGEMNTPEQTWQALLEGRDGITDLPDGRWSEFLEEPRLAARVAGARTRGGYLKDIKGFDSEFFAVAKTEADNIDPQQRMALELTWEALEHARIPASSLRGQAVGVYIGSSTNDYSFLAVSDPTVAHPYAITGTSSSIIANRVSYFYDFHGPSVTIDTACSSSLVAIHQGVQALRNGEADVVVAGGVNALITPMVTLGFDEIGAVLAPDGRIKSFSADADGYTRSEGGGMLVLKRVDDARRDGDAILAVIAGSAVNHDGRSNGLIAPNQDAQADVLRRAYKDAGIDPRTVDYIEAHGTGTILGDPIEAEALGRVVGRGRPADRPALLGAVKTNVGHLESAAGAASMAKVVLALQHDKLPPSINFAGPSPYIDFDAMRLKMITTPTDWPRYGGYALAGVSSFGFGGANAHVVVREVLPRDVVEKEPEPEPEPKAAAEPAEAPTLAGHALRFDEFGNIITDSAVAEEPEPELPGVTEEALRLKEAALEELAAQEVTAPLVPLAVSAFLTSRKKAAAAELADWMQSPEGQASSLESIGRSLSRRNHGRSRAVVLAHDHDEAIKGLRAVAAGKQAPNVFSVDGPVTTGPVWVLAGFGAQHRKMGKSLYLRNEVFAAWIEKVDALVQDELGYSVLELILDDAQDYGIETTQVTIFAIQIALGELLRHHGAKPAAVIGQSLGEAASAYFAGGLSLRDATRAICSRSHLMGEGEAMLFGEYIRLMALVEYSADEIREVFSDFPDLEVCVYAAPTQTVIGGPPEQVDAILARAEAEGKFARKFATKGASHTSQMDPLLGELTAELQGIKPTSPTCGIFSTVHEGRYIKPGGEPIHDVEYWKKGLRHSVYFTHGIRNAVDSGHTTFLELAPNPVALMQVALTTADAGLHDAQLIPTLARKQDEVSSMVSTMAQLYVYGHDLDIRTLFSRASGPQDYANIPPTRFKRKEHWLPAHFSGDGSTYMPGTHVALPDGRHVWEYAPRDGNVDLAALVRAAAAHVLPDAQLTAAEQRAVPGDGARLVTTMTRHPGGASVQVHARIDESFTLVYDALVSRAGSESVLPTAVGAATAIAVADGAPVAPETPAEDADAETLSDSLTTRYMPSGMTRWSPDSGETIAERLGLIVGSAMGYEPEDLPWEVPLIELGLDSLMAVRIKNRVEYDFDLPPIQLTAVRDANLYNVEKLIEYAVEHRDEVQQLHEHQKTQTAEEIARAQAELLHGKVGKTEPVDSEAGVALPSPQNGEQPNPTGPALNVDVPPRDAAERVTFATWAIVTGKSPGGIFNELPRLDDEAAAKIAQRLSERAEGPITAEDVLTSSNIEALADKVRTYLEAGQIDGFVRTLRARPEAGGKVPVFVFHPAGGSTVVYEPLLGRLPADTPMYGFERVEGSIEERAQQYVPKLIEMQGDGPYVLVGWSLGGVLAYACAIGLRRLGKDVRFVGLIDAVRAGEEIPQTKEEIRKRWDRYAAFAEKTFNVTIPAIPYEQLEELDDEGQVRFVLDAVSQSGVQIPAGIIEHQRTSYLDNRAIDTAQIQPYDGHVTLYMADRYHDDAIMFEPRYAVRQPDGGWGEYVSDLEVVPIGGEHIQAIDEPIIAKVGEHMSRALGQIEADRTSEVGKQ

Structure (SMILES) | IC50 (Wolbachia pipientis) | pIC50 (Wolbachia pipientis) | other results
Cn1nccc1C(=O)N1CCCC2(CCN(c3ccsc3)C2=O)C1 (configuration not stated) | > 10 µM | – | –
CCOC(=O)c1sc2ccsc2c1CNC(=O)C(C)(C)C#N | 6.09 µM | 5.24 | –
CCOc1ccc2nc(NC(=O)c3c(C(=O)O)cnn3C)sc2c1 | 1.47 µM | 5.956 | –
CCOCCCC(=O)NCc1ccc(N2CCCCC2)cc1 | > 10 µM | – | –
Cc1csc(Nc2nccnc2C2CCCN2S(C)(=O)=O)n1 (configuration not stated) | > 10 µM | – | –
CC(C)Cn1ncc2cc(C(=O)N(C)CCc3ccccc3)cnc21 | > 10 µM | – | –
Cn1ccnc(Nc2ccc3c(c2)CCN3C(=O)c2ccoc2)c1=O | – | 5.166 and 5.523 | –
COc1ccc(C[C@H]2CN(c3nnc(C)s3)CC[C@H]2OC)cc1.O=C(O)C(F)(F)F | 0.462 µM | 6.226 | IC50 [1]: 16.3 µM; IC50 [2]: 16.4 µM
N#Cc1ccc(N2CCCC3(CCN(c4cccnc4)CC3)C2)cc1.O=C(O)C(F)(F)F | – | 6.279 and 5.873 | IC50 (Histidine--tRNA ligase): 24.6 µM and 24.2 µM
Cn1cc(CN2C[C@@H]3CCC[C@@H](OCc4cccnc4)[C@@H]3C2)cn1 | > 10 µM | – | –
CN1CCC/C1=N\S(=O)(=O)c1ccc(NC(=O)c2ccc(Cl)s2)cc1 | > 10 µM | – | –
c1cc(CN2CCc3cncnc3C2)c2c(c1)OCCO2 | > 10 µM | 5.26 | –
OC1(CN2CCC(Oc3cccc(C(F)(F)F)c3)CC2)CNCCOC1 (configuration not stated) | > 10 µM | – | –
O=C(NCCCn1cncn1)N1CCCCCC1 | > 10 µM | – | –
c1cnnc(N2CCCC2CNCc2csc(-c3ccco3)n2)c1 (configuration not stated) | > 10 µM | – | –
O=c1oc(-c2cccs2)nn1CC(O)c1ccc2c(c1)CCC2 (configuration not stated) | > 10 µM | – | –
O=C1[C@H]2CC[C@H](CN(c3ncnc4ccsc34)C2)N1CC1CC1 | 5.55 µM | 5.348 | IC50 [3]: > 100 µM; IC50 [1]: > 50.1 µM; IC50 [2]: > 50.1 µM
CCc1nc(N)nc(N2CCCC3(CCN(C)CC3)CC2)c1C | > 10 µM | – | –
CO[C@@H]1CCN(c2nnc(C)s2)C[C@@H]1Cc1ccccc1.O=C(O)C(F)(F)F | 0.958 µM | 6.169 | IC50 [1]: 11.3 µM; IC50 [2]: 7.95 µM
Cc1ccc(-c2nc(CN3CCn4c(C)nnc4C3)cs2)o1 | > 10 µM | – | –

Structure (SMILES) | IC50 (Wolbachia pipientis) | pIC50 (Wolbachia pipientis) | other results
CCCNC(=O)c1ncn2c1CN(CC(C)C)S(=O)(=O)c1ccccc1-2 | > 10 µM | – | –
CCC(CC)C(=O)N1CCCc2c(cnn2C)C1 | 5.15 µM | 5.338 | –
CC(C)N1c2sc(-c3ccsc3)nc2CC1C(=O)NC1CCCC1 (configuration not stated) | 7.14 µM | 5.095 | –
COc1ncccc1C(=O)N1CCc2c(ncnc2N2CCOCC2)C1 | > 10 µM | – | –
CCc1nc(C)sc1CN1CCc2[nH]nc(-c3ccc(F)c(F)c3)c2C1 | 4.91 µM | 5.065 | –
c1ccc(-c2nnc(N3CCCC4(CCOC4)C3)s2)cc1 (configuration not stated) | > 10 µM | 5.105 | –
CC(C(=O)N1CCCN(Cc2ccc(C#N)cc2)CC1)n1cncn1 (configuration not stated) | > 10 µM | – | –
COc1ccc(CC(=O)N(C)c2cccnc2N(C)C)c(Cl)c1 | 4.83 µM | 5.287 | IC50 (Lysine--tRNA ligase): > 50.1 µM; IC50 (Histidine--tRNA ligase): 19.4 µM and 16.5 µM
CNC(=O)c1cn[nH]c1C1(C)CCCN(Cc2nccn2C(C)C)C1 (configuration not stated) | > 10 µM | – | –
O=C(O)C(F)(F)F.O=C(O)C(F)(F)F.c1cncc(-c2ccc3c(c2)CCC32CCN(Cc3ccco3)CC2)c1 | 0.404 µM | 6.473 | IC50 [1]: 20.5 µM; IC50 [2]: 28.7 µM
Cc1ccc(C(=O)N2CCC3(CC2)CN(CCN(C)C)C(=O)O3)c(F)c1 | > 10 µM | 5.079 | –
CCc1cc(N(C)Cc2nonc2C)nc(N(C)C)n1 | 1.92 µM | 5.613 | –
COc1cc(CNC(=O)c2csc(Br)c2)ccn1 | 5.94 µM | 5.03 | –
Cc1cc(NC(=O)c2ccccc2Br)n(C)n1 | > 10 µM | – | –
O=C(CNC(=O)c1ccc(Cl)cc1)Nc1nccs1 | 3.56 µM | 5.243 | –
Cc1c[nH]c(CN2CCOC(c3ccc(Cl)cc3)C2)c(C)c1=O (configuration not stated) | 2.63 µM | 5.539 | –
CC(=O)NC(C)c1ccc(OCC2CC2)c(F)c1 (configuration not stated) | 1.47 µM | 5.914 | –
COCc1noc(-c2ccc(N(C)Cc3ncccc3C)nc2)n1 | 3.11 µM | 5.66 | –
CN(C)c1ncc(I)c(C2CCCCN2S(C)(=O)=O)n1 (configuration not stated) | > 10 µM | – | –
CCc1c(C)nc2cc(-c3nccn3C)nn2c1N1CCCC(CO)C1 (configuration not stated) | 5.95 µM | 5.187 | –
